Source: patent publication US20170226507A1, “COORDINATE CONTROL OF PATHOGENIC SIGNALING BY THE MIR-130/301 FAMILY IN PULMONARY HYPERTENSION AND FIBROPROLIFERATIVE DISEASES” (The Brigham and Women's Hospital, Inc., priority 2014, published 2017)

What was measured:
[1] = system: PASMCs; assay: Proliferation of PASMCs (cell counting, BrdU incorporation, PCNA); format: cell-based, human
Description: Pre-miRNA oligonucleotides (pre-miR-130a, pre-miR-204, pre-miR-424, and pre-miR-503 and negative control pre-miR-NC1 and premiR-NC2, Life Technologies), anti-miRNAs oligonucleotides (anti-miR-130a and anti-miR-NC, ThermoScientific), tiny LNA oligonucleotides (tiny-130: 5′-[…]-3′ (SEQ ID NO: 3), and tiny-NC 5′-[…]-3′ (SEQ ID NO: 51), Exiqon), siRNAs (PPARγ and scrambled control, Santa Cruz Biotechnology; HIF-1α, HIF-2α, and scrambled control, Life Technologies) were commercially purchased. PAECs and PASMCs were plated and transfected 24 h later at 70-80% confluence using pre-miRNA (5 nM), anti-miRNA (20 nM), tiny-LNA (20 nM) or siRNA (25 nM) with Lipofectamine 2000 reagent (Life Technologies), according to the manufacturers' instructions.
Exponentially growing cells were transfected, collected at the indicated times and counted.
Cells were lysed in RIPA buffer (Santa Cruz Biotechnology) and the protein concentration determined using a Bradford assay (Biorad). Protein lysate ([…]) were resolved by SDS-PAGE and transferred onto a PVDF membrane (Biorad). Membranes were blocked in 5% non-fat milk in TN buffer (50 mM Tris-HCl pH 7.4, 150 mM NaCl) and incubated in the presence of the primary and then secondary antibodies. After washing in TN buffer containing 0.1% Tween, immunoreactive bands were visualized with the ECL system (Amersham Biosciences). […] Primary antibodies for STAT3 (#9139) and P-STAT3 (Tyr-705; #9145) were purchased from Cell Signaling. Primary antibodies against actin (ab 3280), α-smooth-muscle-actin (ab 32575), CD31 (ab28364), and PCNA (ab 29) were obtained from Abcam. Appropriate secondary antibodies (anti-rabbit and anti-mouse) coupled to HRP were used (Santa Cruz Biotechnology).

[2] = system: PAAFs; assay: ECM remodeling experiment (naïve PAAFs plated on remodeled ECM); format: cell-based, human
Procedure: After the different treatment cells were fixed with PBS/PFA 4% for 10 min and permeabilized with PBS/Triton 100×0.1% for 10 min. Then cells were incubated with anti-YAP1 (#4912; 1/100; Cell signaling) at 4° C. overnight. Secondary antibodies coupled with Alexa-594 (Life Technologies) were used at 1:500. Nuclei were counterstained with DAPI (Sigma).
Following treatment, PAAFs were plated atop soft matrices (see below) in normal growth medium supplemented with 0.5% FBS. After three days, 10 ug/mL of puromycin was added to the growth medium for 48 hours to detach the cells from the matrix. Matrices were washed 3 times (PBS). Naïve PAAFs were then plated on top of these matrices supplemented with normal growth medium 0.5% FBS or harvested for assessment of collagen crosslinking (Picrosirius Red stain). Sixteen hours later, cells were harvested for immunofluorescence experiments or RNA extraction.
Picrosirius Red stain was achieved through the use of 5 μm paraffin sections stained with 0.1% Picrosirius Red (Direct Red80, Sigma-Aldrich) and counterstained with Weigert's hematoxylin to reveal fibrillar collagen. The sections were then serially imaged using with an analyzer and polarizer oriented parallel and orthogonal to each other. Microscope conditions (lamp brightness, condenser opening, objective, zoom, exposure time, and gain parameters) were constant throughout the imaging of all samples. A minimal threshold was set on appropriate control sections for each experiment in which only the light passing through the orthogonally-oriented polarizers representing fibrous structures (i.e., excluding residual light from the black background) was included. The threshold was maintained for all images across all conditions within each experiment. The area of the transferred regions that was covered by the thresholded light was calculated and at least 10 sections/vessel per condition were averaged together (Image J software).

tiny-LNA-130: fully LNA-modified tiny LNA oligonucleotide 5′-ATTGCACT-3′ (SEQ ID NO: 3) complementary to the seed region of the miR-130/301 family (all LNA, backbone and methylation of C not given here)
number of cells ([1]; counted each day during 3 days): greater decrease in the number of cells compared with anti-miR-130a
BrdU incorporation (proliferation) ([1]; exponentially growing, BrdU pulse 1 h): greater decrease in proliferation compared with anti-miR-130a
PCNA expression ([1]; immunoblot 48 hours after transfection): more substantial decrease
collagen crosslinking of remodeled ECM ([2]; Picrosirius Red): reversed
collagen, LOX, CTGF, and POU5F1/OCT4 in naïve cells plated on remodeled ECM ([2]; RT-qPCR): down-regulated
miR-130/301 in naïve cells plated on remodeled ECM ([2]; RT-qPCR): down-regulated
